The numbers were not newly measured in US20180177700A1, “HAIR REMOVAL COMPOSITIONS AND METHODS” (priority 2016, published 2018), which cites them from elsewhere.

Counter-ions that a name gives are not always drawn.

For series [1], the system named is body hair. The conditions noted are these: all different types of body hair (scalp, facial, axillary, pubic, leg).
Series [2] concerns unwanted facial hair.
Where [3] appears, read: topical, 24 weeks, over 594 patients, versus placebo.

With `CS(=O)(=O)OCCCCOS(C)(=O)=O` [busulfan], the hair loss induced in series [1] is on record as ~100%.
As to `NCCCC(N)(C(=O)O)C(F)F` (centres unmarked) [eflornithine hydrochloride], the “time after drug application at which hair growth returned to baseline (transient inhibition)” value in series [2] (after the drug application) is “eight”. Further, in series [2] (setting [3]), the “patients with "Clear" physician reported change in unwanted facial hair” value is recorded as 5%, the “patients with "Improved" physician reported change in unwanted facial hair” value is 26% and the “patients with "Marked" physician reported change in unwanted facial hair” value is listed as 27%.
